# Molecular target: WT STING (Homo sapiens, UniProt Q86WV6, H232R)
# Test: Differential scanning fluorimetry (DSF) with WT STING
# Type: binding
# Set-up: truncated human WT STING or AQ STING (amino acid residues 140-343); 8xHis (N, cleaved yes); SUMO (N, cleaved yes); made in house; host or cells: E. coli Rosetta-gami B (DE3)
# Conditions: thermal shift, truncated human WT STING 0.1 mg/ml, 150 μM CDN; read-out: DSF ΔTm WT STING
# Source text: Both WT and AQ human STING (G230A-R^293Q) cDNA were amplified by the use of PCR (Phusion® High-Fidelity DNA Polymerase, cat. # M0530S, NEB, Ipswich, USA) using oligonucleotides hSTING140-BamH-For ([…]) (SEQ ID NO:5) and hSTING379-Not-Rev3 ([…]) (SEQ ID NO:6) from pUNOI-hSTING-WT (cat. # punol-hstingwt, InvivoGen, San Diego, USA) and pUNO1-hSTING-HAQ plasmids (punol-hsting-haq, InvivoGen, San Diego, USA). Purified PCR products were cleaved with restriction enzymes BamHI (cat. # R^0136S, NEB, Ipswich, USA) and NotI (cat. # R^0189S, NEB, Ipswich, USA) and cloned into the pSUMO vector linearized with the identical enzymes. Plasmid pSUMO was created by introducing 8-His-SUMO sequence between NdeI and BamHI sites of pHis-parallel2 plasmid (Clontech, Moutain View, USA). pSUMO-STING WT or pSUMO-STING AQ plasmids thus encoded truncated human WT STING or AQ STING (amino acid residues 140-343) with N-terminal 8×His and SUMO tag.
# The recombinant WT STING and AQ STING proteins were overexpressed in Rosetta-gami B (DE3) competent cells (cat. #71136-3, Merck Millipore, Billerica, USA). Bacterial pellets were re-suspended in ice-cold lysis buffer containing 50 mmol·l^−1 TrisCl (cat. # T1503, Sigma Aldrich, Czech Republic) pH 8.0, 300 mmol·l^−1 NaCl, 3 mmol·l^−1 (3-mercaptoethanol (cat. # M6250, Sigma Aldrich, Czech Republic), 10% glycerol (cat. #G5516, Sigma Aldrich, Czech Republic) and 20 mmol·l^−1 imidazole (cat. #15513, Sigma Aldrich, Czech Republic) using Dounce homogenizer. DNase I (cat. # D5025, Sigma Aldrich, Czech Republic) and RNase A (cat. # R^6513, Sigma Aldrich, Czech Republic) were added (final concentration 50 μg/ml) together with MgCl2 (final concentration 5 mmol·l^−1) to the homogenate and bacteria were lysed using French Press G-M™ High-Pressure Cell Press Homogenizer (1500 psi, 3 cycles). Lysate was spun 30,000 g for 20 minutes and supernatant was gently stirred with Ni-NTA resin (cat. #745400.25 Macherey-Nagel, Duren, Germany) for 30 minutes. The resin was poured into a chromatography column, washed with 50 ml buffer A (50 mmol·l^−1 TrisCl (pH 8.0), 800 mmol·l^−1 NaCl, 3 mmol·l^−1β-mercaptoethanol; 10% glycerol; 20 mmol·l^−1 imidazole) and 8-His-SUMO tagged STING proteins were eluted with 15 ml buffer A containing 300 mmol·l^−1 imidazole. The eluted proteins were cleaved with recombinant SUMO protease (80 pig/ml of protein solution, cat. #12588018, ThermoFisher, Waltham, USA). The proteins were further purified by size exclusion chromatography using HiLoad 16/60 Superdex 75 (cat. #28989333, GE Healthcare Bio-Sciences, Pittsburgh, USA) in 50 mmol·l^−1 Tris C1 buffer pH 7.4 containing 150 mmol·l^−1 NaCl, and 10% glycerol. Proteins were concentrated with Amicon® Ultra-15 10 K device (cat. # UFC901008, Merck Millipore, Billerica, USA) and flash frozen in liquid N2.
# WT and AQ allelic forms of STING protein were diluted to the final concentration 0.1 mg/ml in 100 mmol·l^−1 TrisCl buffer pH 7.4 containing, 150 mmol·l^−1 NaCl, 1:500 SYPRO Orange (cat. # S6650, ThermoFisher, Waltham, USA) and 150 μM CDN or water. 20 μL solutions of the reaction mixtures were pipetted in triplicates into 96 well optical reaction plates and thermal denaturation of samples were performed on real time PCR cycler (LightCycler® 480 Instrument II—Roche, Basel, Switzerland). The first derivative of the thermal denaturation curves was performed to calculate denaturing temperatures of STING-CDN complexes and STING apoproteins. The thermal shift for each CDN was calculated by subtracting the average denaturing temperature of STING apoprotein from the average denaturing temperature of STING CDN complex.
# WT STING, sequence (Q86WV6 140-343 H232R): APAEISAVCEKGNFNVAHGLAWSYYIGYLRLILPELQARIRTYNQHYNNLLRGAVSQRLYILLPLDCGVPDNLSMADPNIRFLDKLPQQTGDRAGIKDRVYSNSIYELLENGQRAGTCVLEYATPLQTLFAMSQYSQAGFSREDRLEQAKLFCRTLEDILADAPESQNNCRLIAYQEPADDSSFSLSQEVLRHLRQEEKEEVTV
row,SMILES,ΔTm at 150 µM [°C]
1,"CSc1ncnc2c1ncn2[C@@H]1O[C@@H]2COP(=O)(O)OC3C(O)[C@@H](COP(=O)(O)OC2C1O)C[C@H]3n1cnc2c(=O)[nH]cnc21 (stereo partly drawn) [Compound 125, (1S,6R,8R,9R,10S,15R,17R,18R)-3,9,12,18-tetrahydroxy-8-[16-(methylsulfanyl)-9H-purin-9-yl]-17-(6-oxo-6,9-dihydro-1H-purin-9-yl)-2,4,7,11,13-pentaoxa-3λ^5,12λ^5-diphosphatricyclo[13.2.1.0^6,10]octadecane-3,12-dione]",4.2
2,"Nc1ncnc2c1ncn2[C@@H]1O[C@@H]2COP(=O)(O)O[C@@H]3[C@@H](F)[C@@H](COP(=O)(O)O[C@H]2[C@H]1O)C[C@H]3n1cnc2c(=O)[nH]cnc21 [Compound 126, (1S,6R,8R,9R,10S,15R,17R,18S)-8-(6-amino-9H-purin-9-yl)-18-fluoro-3,9,12-trihydroxy-17-(6-oxo-6,9-dihydro-1H-purin-9-yl)-2,4,7,11,13-pentaoxa-3λ^5,12λ^5-diphosphatricyclo[13.2.1.0^6,10]octadecane-3,12-dione]",8.4
3,Nc1ncnc2c1ncn2[C@@H]1O[C@@H]2COP(=O)(O)O[C@@H]3[C@H](F)[C@@H](COP(=O)(O)O[C@H]2[C@H]1F)C[C@H]3n1cnc2c(=O)[nH]cnc21 [Compound 127],8.2

# From patent US20190359645A1, “2'3'-CYCLIC DINUCLEOTIDES COMPRISING CARBOCYCLIC NUCLEOTIDE” (Institute of Organic Chemistry and Biochemistry ASCR, V.V.I., priority 2018, published 2019)
